Source: ChEMBL document CHEMBL4507266, “Data for DCP probe BAY-784” (2021)

Tests used:
[1] = target: Leucine-rich repeat serine/threonine-protein kinase 2 (Homo sapiens) (UniProt Q5S007); conditions: Compound concentration 1000.0 nM
[2] = target: Serine/threonine-protein kinase MARK1 (Homo sapiens) (UniProt Q9P0L2); conditions: Compound concentration 1000.0 nM
[3] = target: Serine/threonine-protein kinase TNNI3K (Homo sapiens) (UniProt Q59H18); conditions: Compound concentration 1000.0 nM
[4] = target: 5'-AMP-activated protein kinase catalytic subunit alpha-2 (Homo sapiens) (UniProt P54646); conditions: Compound concentration 1000.0 nM
Sequence of 5'-AMP-activated protein kinase catalytic subunit alpha-2 (Homo sapiens) (P54646 whole entry, looked up): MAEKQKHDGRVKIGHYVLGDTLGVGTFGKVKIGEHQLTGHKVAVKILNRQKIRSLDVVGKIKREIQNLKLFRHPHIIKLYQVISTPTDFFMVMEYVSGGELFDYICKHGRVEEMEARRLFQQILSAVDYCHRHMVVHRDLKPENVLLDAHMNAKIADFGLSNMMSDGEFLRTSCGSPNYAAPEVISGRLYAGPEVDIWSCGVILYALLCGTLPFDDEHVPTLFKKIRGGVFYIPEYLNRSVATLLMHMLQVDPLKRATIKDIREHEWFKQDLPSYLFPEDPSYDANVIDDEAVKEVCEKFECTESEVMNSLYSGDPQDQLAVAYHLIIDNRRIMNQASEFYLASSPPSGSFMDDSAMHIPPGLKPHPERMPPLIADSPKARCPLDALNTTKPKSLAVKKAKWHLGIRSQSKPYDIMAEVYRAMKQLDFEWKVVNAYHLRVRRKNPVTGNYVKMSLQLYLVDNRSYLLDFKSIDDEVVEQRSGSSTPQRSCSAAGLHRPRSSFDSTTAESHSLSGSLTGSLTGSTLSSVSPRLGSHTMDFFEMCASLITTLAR

[5] = target: Membrane-associated tyrosine- and threonine-specific cdc2-inhibitory kinase (Homo sapiens) (UniProt Q99640); conditions: Compound concentration 1000.0 nM
[6] = target: Mitogen-activated protein kinase kinase kinase kinase 1 (Homo sapiens) (UniProt Q92918); conditions: Compound concentration 1000.0 nM
[7] = target: Muscle, skeletal receptor tyrosine-protein kinase (Homo sapiens) (UniProt O15146); conditions: Compound concentration 1000.0 nM
[8] = target: Maternal embryonic leucine zipper kinase (Homo sapiens) (UniProt Q14680); conditions: Compound concentration 1000.0 nM
Sequence of Maternal embryonic leucine zipper kinase (Homo sapiens) (Q14680 whole entry, looked up): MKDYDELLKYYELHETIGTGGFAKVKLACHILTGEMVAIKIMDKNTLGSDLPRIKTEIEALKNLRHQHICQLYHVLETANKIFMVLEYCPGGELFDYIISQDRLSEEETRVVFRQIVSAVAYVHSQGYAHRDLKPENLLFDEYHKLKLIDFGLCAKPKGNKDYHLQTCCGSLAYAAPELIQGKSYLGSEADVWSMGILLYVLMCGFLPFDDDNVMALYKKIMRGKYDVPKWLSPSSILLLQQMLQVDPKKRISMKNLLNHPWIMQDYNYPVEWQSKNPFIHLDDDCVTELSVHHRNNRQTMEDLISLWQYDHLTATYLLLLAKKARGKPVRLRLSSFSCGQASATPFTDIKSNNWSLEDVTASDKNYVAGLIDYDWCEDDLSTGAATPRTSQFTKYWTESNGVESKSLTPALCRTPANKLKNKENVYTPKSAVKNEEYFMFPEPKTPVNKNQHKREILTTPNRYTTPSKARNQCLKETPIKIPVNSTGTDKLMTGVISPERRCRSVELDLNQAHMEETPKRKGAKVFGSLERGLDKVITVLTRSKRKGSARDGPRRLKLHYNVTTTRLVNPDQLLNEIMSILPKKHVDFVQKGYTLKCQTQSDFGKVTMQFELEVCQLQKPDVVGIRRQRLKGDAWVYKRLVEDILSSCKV

[9] = target: Serine/threonine-protein kinase ULK1 (Homo sapiens) (UniProt O75385); conditions: Compound concentration 1000.0 nM
[10] = target: Dual specificity mitogen-activated protein kinase kinase 7 (Homo sapiens) (UniProt O14733); conditions: Compound concentration 1000.0 nM
[11] = target: Tyrosine-protein kinase SYK (Homo sapiens) (UniProt P43405); conditions: Compound concentration 1000.0 nM
[12] = target: Serine/threonine-protein kinase Nek9 (Homo sapiens) (UniProt Q8TD19); conditions: Compound concentration 1000.0 nM
[13] = test system: ALK tyrosine kinase receptor (Homo sapiens), Q9UM73 [C1156Y]; conditions: Compound concentration 1000.0 nM
[14] = target: BMP-2-inducible protein kinase (Homo sapiens) (UniProt Q9NSY1); conditions: Compound concentration 1000.0 nM
Sequence of BMP-2-inducible protein kinase (Homo sapiens) (Q9NSY1 whole entry, looked up): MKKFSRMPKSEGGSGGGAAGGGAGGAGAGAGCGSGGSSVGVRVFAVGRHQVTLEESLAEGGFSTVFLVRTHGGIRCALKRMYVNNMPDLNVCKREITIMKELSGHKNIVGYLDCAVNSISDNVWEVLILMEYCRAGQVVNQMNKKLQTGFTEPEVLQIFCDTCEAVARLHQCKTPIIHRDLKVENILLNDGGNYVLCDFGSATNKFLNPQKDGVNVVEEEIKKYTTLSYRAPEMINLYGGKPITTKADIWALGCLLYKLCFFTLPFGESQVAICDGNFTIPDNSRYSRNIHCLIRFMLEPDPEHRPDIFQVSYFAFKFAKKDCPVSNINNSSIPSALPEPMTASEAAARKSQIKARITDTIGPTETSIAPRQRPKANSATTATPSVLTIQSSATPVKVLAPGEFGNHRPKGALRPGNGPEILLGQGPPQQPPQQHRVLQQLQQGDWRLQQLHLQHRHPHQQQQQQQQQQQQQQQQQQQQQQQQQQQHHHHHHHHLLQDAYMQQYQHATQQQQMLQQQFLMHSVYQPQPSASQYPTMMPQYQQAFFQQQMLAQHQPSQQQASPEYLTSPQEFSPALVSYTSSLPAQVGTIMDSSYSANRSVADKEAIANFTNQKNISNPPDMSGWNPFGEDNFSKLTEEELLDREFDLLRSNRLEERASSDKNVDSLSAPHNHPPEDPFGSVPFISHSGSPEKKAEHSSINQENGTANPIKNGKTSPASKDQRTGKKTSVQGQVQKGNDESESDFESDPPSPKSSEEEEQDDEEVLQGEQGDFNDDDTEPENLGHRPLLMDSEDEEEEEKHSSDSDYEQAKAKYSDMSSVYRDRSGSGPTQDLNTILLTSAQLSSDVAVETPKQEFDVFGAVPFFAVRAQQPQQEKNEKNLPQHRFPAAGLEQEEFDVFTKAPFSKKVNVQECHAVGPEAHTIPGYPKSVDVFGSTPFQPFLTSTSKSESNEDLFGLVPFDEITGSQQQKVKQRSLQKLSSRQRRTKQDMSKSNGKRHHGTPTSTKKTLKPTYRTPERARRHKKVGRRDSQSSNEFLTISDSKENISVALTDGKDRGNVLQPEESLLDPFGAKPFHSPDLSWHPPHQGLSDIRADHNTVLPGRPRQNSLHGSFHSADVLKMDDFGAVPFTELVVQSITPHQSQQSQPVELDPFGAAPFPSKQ

[15] = test system: Serine/threonine-protein kinase B-raf (Homo sapiens), P15056 [V600E]; conditions: Compound concentration 1000.0 nM
[16] = target: Dual specificity mitogen-activated protein kinase kinase 3 (Homo sapiens) (UniProt P46734); conditions: Compound concentration 1000.0 nM
Sequence of Dual specificity mitogen-activated protein kinase kinase 3 (Homo sapiens) (P46734 whole entry): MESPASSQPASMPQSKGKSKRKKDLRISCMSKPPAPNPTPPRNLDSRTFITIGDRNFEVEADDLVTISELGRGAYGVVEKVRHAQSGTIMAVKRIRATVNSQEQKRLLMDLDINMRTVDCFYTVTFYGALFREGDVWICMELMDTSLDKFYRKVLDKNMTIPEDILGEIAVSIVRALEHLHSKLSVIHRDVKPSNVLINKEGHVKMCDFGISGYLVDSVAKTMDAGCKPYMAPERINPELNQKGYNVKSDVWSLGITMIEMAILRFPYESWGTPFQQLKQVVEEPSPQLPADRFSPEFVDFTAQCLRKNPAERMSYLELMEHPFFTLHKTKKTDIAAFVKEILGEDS

[17] = target: Tyrosine-protein kinase FRK (Homo sapiens) (UniProt P42685); conditions: Compound concentration 1000.0 nM
[18] = test system: Phosphatidylinositol 4,5-bisphosphate 3-kinase catalytic subunit alpha isoform (Homo sapiens), P42336 [I800L]; conditions: Compound concentration 1000.0 nM
[19] = target: Mitogen-activated protein kinase 12 (Homo sapiens) (UniProt P53778); conditions: Compound concentration 1000.0 nM
[20] = target: Tyrosine-protein kinase HCK (Homo sapiens) (UniProt P08631); conditions: Compound concentration 1000.0 nM
[21] = target: Uncharacterized serine/threonine-protein kinase SBK3 (Homo sapiens) (UniProt P0C264); conditions: Compound concentration 1000.0 nM
Sequence of Uncharacterized serine/threonine-protein kinase SBK3 (Homo sapiens) (P0C264 whole entry): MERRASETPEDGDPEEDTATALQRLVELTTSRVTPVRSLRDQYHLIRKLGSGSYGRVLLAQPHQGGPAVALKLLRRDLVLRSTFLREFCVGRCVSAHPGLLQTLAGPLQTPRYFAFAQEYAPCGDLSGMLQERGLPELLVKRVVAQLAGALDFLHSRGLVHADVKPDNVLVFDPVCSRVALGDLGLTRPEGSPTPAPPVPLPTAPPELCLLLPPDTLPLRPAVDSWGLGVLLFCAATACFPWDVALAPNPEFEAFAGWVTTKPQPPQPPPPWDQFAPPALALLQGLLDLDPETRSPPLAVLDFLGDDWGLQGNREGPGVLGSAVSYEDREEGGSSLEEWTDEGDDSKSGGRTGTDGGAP

[22] = target: Ribosomal protein S6 kinase alpha-2 (Homo sapiens) (UniProt Q15349); conditions: Compound concentration 1000.0 nM
Sequence of Ribosomal protein S6 kinase alpha-2 (Homo sapiens) (Q15349 whole entry): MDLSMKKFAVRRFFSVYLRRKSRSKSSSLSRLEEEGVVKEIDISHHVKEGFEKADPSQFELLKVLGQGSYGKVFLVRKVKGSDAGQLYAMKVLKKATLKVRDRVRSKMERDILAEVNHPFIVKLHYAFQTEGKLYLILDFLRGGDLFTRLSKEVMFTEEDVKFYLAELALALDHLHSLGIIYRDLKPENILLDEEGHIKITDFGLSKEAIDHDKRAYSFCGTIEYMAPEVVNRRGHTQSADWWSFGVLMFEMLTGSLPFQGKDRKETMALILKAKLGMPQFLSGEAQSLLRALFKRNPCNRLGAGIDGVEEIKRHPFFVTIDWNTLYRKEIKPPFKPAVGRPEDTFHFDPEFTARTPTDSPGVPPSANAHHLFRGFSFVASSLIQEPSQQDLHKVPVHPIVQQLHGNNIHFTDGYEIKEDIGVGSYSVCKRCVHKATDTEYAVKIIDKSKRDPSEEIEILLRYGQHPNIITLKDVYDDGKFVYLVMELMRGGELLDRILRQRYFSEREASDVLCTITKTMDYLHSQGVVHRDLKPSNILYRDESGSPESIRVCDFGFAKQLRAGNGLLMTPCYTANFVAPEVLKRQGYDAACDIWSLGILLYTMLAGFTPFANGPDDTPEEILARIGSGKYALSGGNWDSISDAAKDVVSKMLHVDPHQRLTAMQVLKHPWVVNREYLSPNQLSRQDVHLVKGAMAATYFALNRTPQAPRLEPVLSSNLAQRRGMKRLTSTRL

[23] = target: Mitogen-activated protein kinase kinase kinase 3 (Homo sapiens) (UniProt Q99759); conditions: Compound concentration 1000.0 nM
[24] = target: NT-3 growth factor receptor (Homo sapiens) (UniProt Q16288); conditions: Compound concentration 1000.0 nM
[25] = target: Serine/threonine-protein kinase Nek1 (Homo sapiens) (UniProt Q96PY6); conditions: Compound concentration 1000.0 nM
[26] = target: Protein kinase C epsilon type (Homo sapiens) (UniProt Q02156); conditions: Compound concentration 1000.0 nM
Sequence of Protein kinase C epsilon type (Homo sapiens) (Q02156 whole entry): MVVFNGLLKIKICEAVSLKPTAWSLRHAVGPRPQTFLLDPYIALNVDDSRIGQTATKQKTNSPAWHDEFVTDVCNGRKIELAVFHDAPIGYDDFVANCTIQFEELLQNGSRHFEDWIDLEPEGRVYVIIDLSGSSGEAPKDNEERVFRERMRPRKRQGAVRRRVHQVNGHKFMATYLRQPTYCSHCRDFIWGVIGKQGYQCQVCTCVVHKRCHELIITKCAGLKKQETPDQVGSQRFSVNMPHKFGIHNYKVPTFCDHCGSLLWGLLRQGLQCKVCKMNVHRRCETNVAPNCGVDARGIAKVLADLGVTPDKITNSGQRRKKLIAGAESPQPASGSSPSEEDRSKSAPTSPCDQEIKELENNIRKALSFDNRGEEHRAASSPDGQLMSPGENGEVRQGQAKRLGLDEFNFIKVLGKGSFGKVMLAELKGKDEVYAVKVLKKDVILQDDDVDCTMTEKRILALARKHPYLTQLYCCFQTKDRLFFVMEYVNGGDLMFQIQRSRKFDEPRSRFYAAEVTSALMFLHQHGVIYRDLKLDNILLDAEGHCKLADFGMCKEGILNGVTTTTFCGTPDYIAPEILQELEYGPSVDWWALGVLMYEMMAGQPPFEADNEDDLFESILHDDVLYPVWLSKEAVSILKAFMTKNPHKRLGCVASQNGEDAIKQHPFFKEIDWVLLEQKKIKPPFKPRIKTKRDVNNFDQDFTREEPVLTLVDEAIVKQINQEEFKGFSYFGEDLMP

[27] = target: Activin receptor type-1B (Homo sapiens) (UniProt P36896); conditions: Compound concentration 1000.0 nM
[28] = target: Tyrosine-protein kinase ZAP-70 (Homo sapiens) (UniProt P43403); conditions: Compound concentration 1000.0 nM
[29] = target: Serine/threonine-protein kinase ULK2 (Homo sapiens) (UniProt Q8IYT8); conditions: Compound concentration 1000.0 nM
[30] = target: Dual specificity tyrosine-phosphorylation-regulated kinase 1B (Homo sapiens) (UniProt Q9Y463); conditions: Compound concentration 1000.0 nM
[31] = target: Receptor tyrosine-protein kinase erbB-2 (Homo sapiens) (UniProt P04626); conditions: Compound concentration 1000.0 nM
[32] = test system: Proto-oncogene tyrosine-protein kinase receptor Ret (Homo sapiens), P07949 [V804M]; conditions: Compound concentration 1000.0 nM
[33] = target: Phosphatidylinositol 4,5-bisphosphate 3-kinase catalytic subunit alpha isoform (Homo sapiens) (UniProt P42336); conditions: Compound concentration 1000.0 nM
[34] = target: Epidermal growth factor receptor (Homo sapiens) (UniProt P00533); conditions: Compound concentration 1000.0 nM
[35] = target: Dual specificity testis-specific protein kinase 1 (Homo sapiens) (UniProt Q15569); conditions: Compound concentration 1000.0 nM
[36] = test system: Epidermal growth factor receptor (Homo sapiens), P00533 [G719C]; conditions: Compound concentration 1000.0 nM
[37] = target: Non-receptor tyrosine-protein kinase TYK2 (Homo sapiens) (UniProt P29597); conditions: Compound concentration 1000.0 nM
[38] = target: Muscarinic acetylcholine receptor M3 (Homo sapiens) (UniProt P20309); conditions: Compound concentration 10.0 uM
[39] = target: Phosphatidylinositol 5-phosphate 4-kinase type-2 beta (Homo sapiens) (UniProt P78356); conditions: Compound concentration 1000.0 nM
[40] = target: Phosphatidylinositol 4,5-bisphosphate 3-kinase catalytic subunit beta isoform (Homo sapiens) (UniProt P42338); conditions: Compound concentration 1000.0 nM
[41] = target: cAMP-dependent protein kinase catalytic subunit PRKX (Homo sapiens) (UniProt P51817); conditions: Compound concentration 1000.0 nM
Sequence of cAMP-dependent protein kinase catalytic subunit PRKX (Homo sapiens) (P51817 whole entry): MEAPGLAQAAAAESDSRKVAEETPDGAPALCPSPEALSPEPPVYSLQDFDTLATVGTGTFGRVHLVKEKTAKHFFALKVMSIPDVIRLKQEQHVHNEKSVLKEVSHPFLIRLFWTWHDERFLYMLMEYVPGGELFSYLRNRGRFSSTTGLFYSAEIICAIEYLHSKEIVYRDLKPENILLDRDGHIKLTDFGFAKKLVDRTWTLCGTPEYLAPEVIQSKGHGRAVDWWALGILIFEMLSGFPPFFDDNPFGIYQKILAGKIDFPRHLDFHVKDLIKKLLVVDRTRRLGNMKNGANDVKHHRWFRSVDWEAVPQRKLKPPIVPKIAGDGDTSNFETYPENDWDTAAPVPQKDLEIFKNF

[42] = target: Mitogen-activated protein kinase kinase kinase kinase 2 (Homo sapiens) (UniProt Q12851); conditions: Compound concentration 1000.0 nM
[43] = target: Phosphatidylinositol 4-kinase beta (Homo sapiens) (UniProt Q9UBF8); conditions: Compound concentration 1000.0 nM
[44] = target: Serine/threonine-protein kinase BRSK2 (Homo sapiens) (UniProt Q8IWQ3); conditions: Compound concentration 1000.0 nM

What does the source list for `O=C(NCc1ncc(C(F)(F)F)cc1Cl)c1ccc2c(c1)C1(CCS(=O)(=O)CC1)[C@@H](C1CC1)N2S(=O)(=O)c1ccc(F)cc1` [BAY-786]?
residual activity [1]: 98%; residual activity [2]: 100%; residual activity [3]: 100%; residual activity [4]: 100%; residual activity [5]: 92%; residual activity [6]: 89%; residual activity [7]: 79%; residual activity [8]: 100%; residual activity [9]: 80%; residual activity [10]: 79%; residual activity [11]: 100%; residual activity [12]: 72%; residual activity [13]: 100%; residual activity [14]: 76%; residual activity [15]: 90%; residual activity [16]: 73%; residual activity [17]: 99%; residual activity [18]: 78%; residual activity [19]: 94%; residual activity [20]: 86%; residual activity [21]: 100%; residual activity [22]: 93%; residual activity [23]: 60%; residual activity [24]: 71%; residual activity [25]: 96%; residual activity [26]: 76%; residual activity [27]: 87%; residual activity [28]: 72%; residual activity [29]: 54%; residual activity [30]: 100%; residual activity [31]: 100%; residual activity [32]: 100%; residual activity [33]: 100%; residual activity [34]: 100%; residual activity [35]: 85%; residual activity [36]: 90%; residual activity [37]: 46%; inhibition [38]: 14.4%; residual activity [39]: 89%; residual activity [40]: 75%; residual activity [41]: 100%; residual activity [42]: 91%; residual activity [43]: 100%; residual activity [44]: 100%

With `O=C(NCc1ncc(C(F)(F)F)cc1Cl)c1ccc2c(c1)C1(CCS(=O)(=O)CC1)[C@H](C1CC1)N2S(=O)(=O)c1ccc(F)cc1` [BAY-784] as the molecule, how does the residual activity [1] read?
The residual activity was 82%.

And the residual activity [2]?
Its residual activity is 100%.

And the residual activity [3]?
The residual activity was 100%.

And the residual activity [4]?
Its residual activity is 100%.

What about the residual activity [5] of the same molecule?
Its residual activity is 100%.

What about the residual activity [6] of the same molecule?
Its residual activity is 100%.

What about the residual activity [7] of the same molecule?
Its residual activity is 100%.

What about the residual activity [8] of the same molecule?
Its residual activity is 54%.

What about the residual activity [9] of the same molecule?
Its residual activity is 90%.

What about the residual activity [10] of the same molecule?
The residual activity was 72%.

What about the residual activity [11] of the same molecule?
The residual activity was 100%.

And the residual activity [12]?
The residual activity was 100%.

And the residual activity [13]?
The residual activity was 82%.

What about the residual activity [14] of the same molecule?
The residual activity was 96%.

What about the residual activity [15] of the same molecule?
The residual activity was 84%.

What about the residual activity [16] of the same molecule?
The residual activity was 71%.

What about the residual activity [17] of the same molecule?
Its residual activity is 100%.

And the residual activity [18]?
Its residual activity is 78%.

And the residual activity [19]?
The residual activity was 100%.

And the residual activity [20]?
Its residual activity is 69%.

And the residual activity [21]?
Its residual activity is 100%.

What about the residual activity [22] of the same molecule?
Its residual activity is 100%.

And the residual activity [23]?
The residual activity was 74%.

And the residual activity [24]?
The residual activity was 84%.

And the residual activity [25]?
The residual activity was 100%.

And the residual activity [26]?
The residual activity was 69%.

What about the residual activity [27] of the same molecule?
Its residual activity is 94%.

What about the residual activity [28] of the same molecule?
Its residual activity is 84%.

What about the residual activity [29] of the same molecule?
Its residual activity is 58%.

What about the residual activity [30] of the same molecule?
The residual activity was 100%.

And the residual activity [31]?
The residual activity was 100%.

And the residual activity [32]?
The residual activity was 100%.

And the residual activity [33]?
Its residual activity is 100%.

And the residual activity [34]?
The residual activity was 95%.

And the residual activity [35]?
Its residual activity is 91%.

And the residual activity [36]?
The residual activity was 78%.

What about the residual activity [37] of the same molecule?
Its residual activity is 92%.

What about the inhibition [38] of the same molecule?
Its inhibition is 18.1%.

What about the residual activity [39] of the same molecule?
Its residual activity is 89%.

What about the residual activity [40] of the same molecule?
Its residual activity is 68%.

What about the residual activity [41] of the same molecule?
The residual activity was 88%.

What about the residual activity [42] of the same molecule?
Its residual activity is 100%.

And the residual activity [43]?
Its residual activity is 78%.

What about the residual activity [44] of the same molecule?
Its residual activity is 100%.
